This note sets out measurements from patent US4760136A, “Chartreusin derivatives and salts thereof” (Ishihara Sangyo Kaisha, Ltd., priority 1984, dated 1988).

For orientation: LD50 means the dose at which mortality reaches 50%. A low value points to a more toxic substance.

Data set [1] is described as follows: Acute toxicity, intravenous (once), ddY mice. As to conditions: mouse, in vivo, iv, formulated per Preparation Example. In kind it is in vivo. From the text: In Table 7 are shown acute toxicity values (LD50, mg/kg) in ddY mice in the case of intravenously administering (once) each of the compounds of this invention in the form of preparations shown in the Preparation Examples shown in Table 7.

The subject of a further data set is P-388 leukemia cells. Description: Antitumor activity: P-388 leukemia cells inoculated intraperitoneally, drug administered intravenously, BDF1 mice. In kind it is in vivo. As to conditions: Mus musculus, P388, iv, BDF1 mice, P-388 i.p., read-out: T/C (%) of MST; for response vs control in vivo at 80 mg/kg: dose f: 80 mg/kg × 3, i.v. on days 1, 5 and 9; for response vs control in vivo at 60 mg/kg: dose e: 60 mg/kg × 3, i.v. on days 1, 5 and 9; for response vs control in vivo at 40 mg/kg: dose c: 40 mg/kg × 3, i.v. on days 1, 5 and 9; for response vs control in vivo at 20 mg/kg: dose b: 20 mg/kg × 3, i.v. on days 1, 5 and 9; for response vs control in vivo at 50 mg/kg: dose d: 50 mg/kg × 3, i.v. on days 1, 5 and 9. The procedure:
Into BDF1 mice were inoculated intraperitoneally P-388 leukemia cells at a rate of 1×10^6 cells/mouse, and each drug to be tested was administered intravenously on the first, fifth and ninth days after the inoculation. […] The drugs were as follows solutions prepared by adding physiological saline to each of compound Nos. 8, 9, 10, 11, 17, 34, 42, 59, 80 and 134; suspensions prepared by dispersing each of compound Nos. 41, 78, 98, 100, 130, 191, 212, 213, 215, 227 and 230 to 232 and a small amount of sodium carboxymethyl cellulose (Na.CMC) in physiological saline, […]

Bounds are passed on as bounds.

For `COC1C(O)C(C)OC(OC2C(Oc3cccc4c(OC(=O)CCNC=O)c5c(=O)oc6ccc(C)c7c(=O)oc(c34)c5c67)OC(C)C3OC(C)(C)OC32)C1O` (stereo not drawn) [Compound No. 48, 6-O-(N-formyl-β-alanyl)-3',4'-O-isopropylidene-chartreusin], the LD50 in data set [1] is at least 120 mg/kg. In addition, the response vs control in vivo at 80 mg/kg with P-388 leukemia cells was 172%.

With `COC1C(O)C(C)OC(OC2C(Oc3cccc4c(OC(=O)CCNC(=O)C(F)(F)F)c5c(=O)oc6ccc(C)c7c(=O)oc(c34)c5c67)OC(C)C3OC(C)(C)OC32)C1O` (stereo not drawn) [Compound No. 49, 6-O-(N-Trifluoroacetyl-β-Alanyl)-3',4'-O-Isopropylidene-Chartreusin], in data set [1], the LD50 was at least 150 mg/kg. Also, in the data set on P-388 leukemia cells, the response vs control in vivo at 80 mg/kg worked out at 207%.

Turning to `COC1C(O)C(C)OC(OC2C(Oc3cccc4c(OC(=O)CCNC(=O)c5ccccc5)c5c(=O)oc6ccc(C)c7c(=O)oc(c34)c5c67)OC(C)C3OC(C)(C)OC32)C1O` (centres unmarked) [Compound No. 50], the LD50 in data set [1] was at least 100 mg/kg. Besides, the response vs control in vivo at 60 mg/kg with P-388 leukemia cells worked out at 155%.

On to `COC1C(O)C(C)OC(OC2C(Oc3cccc4c(OC(=O)CC(C)NC(=O)C(F)(F)F)c5c(=O)oc6ccc(C)c7c(=O)oc(c34)c5c67)OC(C)C3OC(C)(C)OC32)C1O` (centres unmarked) [Compound No. 51], for which, in data set [1], the median lethal dose (LD50) is at least 100 mg/kg. In addition, in the data set on P-388 leukemia cells, the response vs control in vivo at 40 mg/kg stood at 136% and the response vs control in vivo at 80 mg/kg was determined as 207%.

On to `COC1C(O)C(C)OC(OC2C(Oc3cccc4c(OC(=O)CCNC=O)c5c(=O)oc6ccc(C)c7c(=O)oc(c34)c5c67)OC(C)C3OC(c4cccc(C(F)(F)F)c4)OC32)C1O` (centres unmarked) [Compound No. 52], for which the LD50 in data set [1] is at least 80 mg/kg. Moreover, in the data set with P-388 leukemia cells, the response vs control in vivo at 40 mg/kg was determined as 162% and the response vs control in vivo at 80 mg/kg was found to be 203%.

The molecule `COC1C(O)C(C)OC(OC2C(Oc3cccc4c(OC(=O)CCNC(C)=O)c5c(=O)oc6ccc(C)c7c(=O)oc(c34)c5c67)OC(C)C3OC(c4cccc(C(F)(F)F)c4)OC32)C1O` (centres unmarked) [Compound No. 53] displayed a median lethal dose (LD50) in data set [1] of at least 80 mg/kg. For the same molecule, in the data set with P-388 leukemia cells, the response vs control in vivo at 40 mg/kg was found to be 165% and the response vs control in vivo at 80 mg/kg came to 239%.

In data set [1], `COC1C(O)C(C)OC(OC2C(Oc3cccc4c(OC(=O)CCNC=O)c5c(=O)oc6ccc(C)c7c(=O)oc(c34)c5c67)OC(C)C3OC(c4cccc(Br)c4)OC32)C1O` (centres unmarked) [Compound No. 54] returned an LD50 of at least 80 mg/kg. Further, in the data set on P-388 leukemia cells, the response vs control in vivo at 40 mg/kg came out at 144% and the response vs control in vivo at 80 mg/kg is 208%.

`COC1C(O)C(C)OC(OC2C(Oc3cccc4c(OC(=O)CCNC=O)c5c(=O)oc6ccc(C)c7c(=O)oc(c34)c5c67)OC(C)C3OC(c4ccccc4C)OC32)C1O` (centres unmarked) [Compound No. 55] came in with an LD50 in data set [1] of at least 40 mg/kg. In addition, the response vs control in vivo at 40 mg/kg in the data set with P-388 leukemia cells turned out to be 162%.

As for `COC1C(O)C(C)OC(OC2C(Oc3cccc4c(OC(=O)CCNC(=O)C(Cl)(Cl)Cl)c5c(=O)oc6ccc(C)c7c(=O)oc(c34)c5c67)OC(C)C3OC(c4cccc(Br)c4)OC32)C1O` (centres unmarked) [Compound No. 56], the LD50 in data set [1] was at least 80 mg/kg. Moreover, in the data set on P-388 leukemia cells, the response vs control in vivo at 40 mg/kg was found to be 165% and the response vs control in vivo at 80 mg/kg was 219%.

In data set [1], `COC1C(O)C(C)OC(OC2C(Oc3cccc4c(OC(=O)CCNC=O)c5c(=O)oc6ccc(C)c7c(=O)oc(c34)c5c67)OC(C)C3OC(c4ccccc4Cl)OC32)C1O` (centres unmarked) [Compound No. 58] registered a 50% lethal dose (LD50) of at least 80 mg/kg. For the same molecule, in the data set on P-388 leukemia cells, the response vs control in vivo at 40 mg/kg is 162% and the response vs control in vivo at 80 mg/kg came out at 216%.

Regarding `COC1C(O)C(C)OC(OC2C(Oc3cccc4c(OC(=O)C(C)CNC(=O)OCc5ccccc5)c5c(=O)oc6ccc(C)c7c(=O)oc(c34)c5c67)OC(C)C3OC(c4cccc(F)c4)OC32)C1O` (centres unmarked) [Compound No. 60], the LD50 in data set [1] is at least 40 mg/kg. Also, in the data set with P-388 leukemia cells, the response vs control in vivo at 20 mg/kg stood at 176% and the response vs control in vivo at 40 mg/kg turned out to be 210%.

Take `COC1C(O)C(C)OC(OC2C(Oc3cccc4c(OC(=O)CCNC(=O)CNC(=O)OCc5ccccc5)c5c(=O)oc6ccc(C)c7c(=O)oc(c34)c5c67)OC(C)C3OC(c4cccc(F)c4)OC32)C1O` (centres unmarked) [Compound No. 61]: the LD50 in data set [1] is at least 40 mg/kg. Besides, in the data set with P-388 leukemia cells, the response vs control in vivo at 20 mg/kg was determined as 176% and the response vs control in vivo at 40 mg/kg was 220%.

In data set [1], `COC1C(O)C(C)OC(OC2C(Oc3cccc4c(OC(=O)C5CCCCC5NC(=O)OCc5ccccc5)c5c(=O)oc6ccc(C)c7c(=O)oc(c34)c5c67)OC(C)C3OC(c4ccccc4)OC32)C1O` (centres unmarked) [Compound No. 62] showed an LD50 of at least 40 mg/kg. In the data set with P-388 leukemia cells, the response vs control in vivo at 20 mg/kg was determined as 155% and the response vs control in vivo at 40 mg/kg came to 210%.

With `COC1C(O)C(C)OC(OC2C(Oc3cccc4c(OC(=O)C(CCSC)NC(=O)OCc5ccccc5)c5c(=O)oc6ccc(C)c7c(=O)oc(c34)c5c67)OC(C)C3OC(C)(C)OC32)C1O` (centres unmarked) [Compound No. 63], in data set [1], the LD50 was at least 120 mg/kg. Moreover, in the data set on P-388 leukemia cells, the response vs control in vivo at 50 mg/kg came out at 150%. The response vs control in vivo at 100 mg/kg with P-388 leukemia cells (dose g: 100 mg/kg × 3, i.v. on days 1, 5 and 9) came to 205%.

Regarding `COC1C(O)C(C)OC(OC2C(Oc3cccc4c(OC(=O)CCCCCCCNC(=O)C(F)(F)F)c5c(=O)oc6ccc(C)c7c(=O)oc(c34)c5c67)OC(C)C3OC(c4cccc(F)c4)OC32)C1O` (centres unmarked) [Compound No. 64], in data set [1], the LD50 is at least 80 mg/kg. Further, in the data set with P-388 leukemia cells, the response vs control in vivo at 40 mg/kg was determined as 165% and the response vs control in vivo at 80 mg/kg came to 210%.

`COC1C(O)C(C)OC(OC2C(Oc3cccc4c(OC(=O)C(C)CNC(=O)OCc5ccccc5)c5c(=O)oc6ccc(C)c7c(=O)oc(c34)c5c67)OC(C)C3OC(c4ccccc4)OC32)C1O` (stereo not drawn) [Compound No. 69, 6-O-(N-Carbobenzyloxy-β-Amino-Isobutyryl)-3,4-O-Benzylidene-Chartreusin] gave an LD50 in data set [1] of at least 40 mg/kg. Moreover, in the data set with P-388 leukemia cells, the response vs control in vivo at 20 mg/kg came to 179% and the response vs control in vivo at 40 mg/kg came out at 222%.

`COC1C(O)C(C)OC(OC2C(Oc3cccc4c(OC(=O)C(CC[S+](C)[O-])NC(=O)OCc5ccccc5)c5c(=O)oc6ccc(C)c7c(=O)oc(c34)c5c67)OC(C)C3OC(c4ccccc4)OC32)C1O` (centres unmarked) [Compound No. 79, 6-O-(N-Carbobenzyloxy-S-Oxomethionyl)-3',4'-O-Benzylidene-Chartreusin] came in with an LD50 in data set [1] of at least 40 mg/kg. Also, in the data set on P-388 leukemia cells, the response vs control in vivo at 40 mg/kg came to 179%.

Take `COC1C(O)C(C)OC(OC2C(Oc3cccc4c(OC(=O)CCNC(C)=O)c5c(=O)oc6ccc(C)c7c(=O)oc(c34)c5c67)OC(C)C3OC(C)(C)OC32)C1O` (stereo not drawn) [Compound No. 87, 6-O-(N-Acetyl-β-Alanyl)-3',4'-O-Isopropylidene-Chartreusin]: the LD50 in data set [1] was at least 100 mg/kg. In the data set with P-388 leukemia cells, the response vs control in vivo at 40 mg/kg is 134% and the response vs control in vivo at 80 mg/kg stood at 183%.

`COC1C(O)C(C)OC(OC2C(Oc3cccc4c(OC(=O)CCCCCNC(=O)OCc5ccccc5)c5c(=O)oc6ccc(C)c7c(=O)oc(c34)c5c67)OC(C)C3OC(C)(C)OC32)C1O` (centres unmarked) [Compound No. 111, 6-O-(N-Carbobenzyloxy-6-Amino-n-Hexanoyl)-3',4'-O-Isopropylidene-Chartreusin] gave an LD50 in data set [1] of at least 100 mg/kg. The response vs control in vivo at 60 mg/kg with P-388 leukemia cells turned out to be 175%.

On to `COC1C(O)C(C)OC(OC2C(Oc3cccc4c(OC(=O)CCNC(=O)C(Cl)(Cl)Cl)c5c(=O)oc6ccc(C)c7c(=O)oc(c34)c5c67)OC(C)C3OC(C)(C)OC32)C1O` (stereo not drawn) [Compound No. 112, 6-O-(N-Trichloroacetyl-β-Alanyl)-3',4'-O-Isopropylidene-Chartreusin], for which, in data set [1], the 50% lethal dose (LD50) was at least 100 mg/kg. Further, the response vs control in vivo at 50 mg/kg in the data set on P-388 leukemia cells was found to be 148%.

As for `COC1C(O)C(C)OC(OC2C(Oc3cccc4c(OC(=O)CNC(=O)CNC(=O)CNC(=O)OCc5ccccc5)c5c(=O)oc6ccc(C)c7c(=O)oc(c34)c5c67)OC(C)C3OC(c4ccccc4)OC32)C1O` (centres unmarked) [Compound No. 114, 6-O-(N-Carbobenzyloxy-Glycyl-Glycyl-Glycyl)-3',4'-O-Benzylidene-Chartreusin], the LD50 in data set [1] is at least 40 mg/kg. In addition, the response vs control in vivo at 40 mg/kg with P-388 leukemia cells was 130%.

Consider `COC1C(O)C(C)OC(OC2C(Oc3cccc4c(OC(=O)C(C)CN(C(=O)OCc5ccccc5)C(C)C)c5c(=O)oc6ccc(C)c7c(=O)oc(c34)c5c67)OC(C)C3OC(c4ccccc4)OC32)C1O` (stereo not drawn) [Compound No. 135, 6-O-(N-Carbobenzyloxy-N-Isopropyl-β-Amino-isobutyryl)-3',4'-O-benzylidenechartreusin], for which, in data set [1], the 50% lethal dose (LD50) was at least 40 mg/kg. In addition, the response vs control in vivo at 20 mg/kg in the data set with P-388 leukemia cells was determined as 167%.

As for `COC1C(O)C(C)OC(OC2C(Oc3cccc4c(OC(=O)CCCO)c5c(=O)oc6ccc(C)c7c(=O)oc(c34)c5c67)OC(C)C3OC(c4ccccc4)OC32)C1O` (centres unmarked) [Compound No. 147, 6-O-(4-Hydroxy-n-Butyryl)-3',4'-O-Benzylidene-Chartreusin], the LD50 in data set [1] was at least 40 mg/kg. The response vs control in vivo at 20 mg/kg with P-388 leukemia cells stood at 214%.

`COC1C(O)C(C)OC(OC2C(Oc3cccc4c(OC(=O)COC(C)=O)c5c(=O)oc6ccc(C)c7c(=O)oc(c34)c5c67)OC(C)C3OC(c4ccccc4)OC32)C1O` (centres unmarked) [Compound No. 148] registered an LD50 in data set [1] of at least 40 mg/kg. In the data set on P-388 leukemia cells, the response vs control in vivo at 20 mg/kg stood at 185% and the response vs control in vivo at 40 mg/kg amounted to 250%.
